Experimental data: patent US9701709B2 (REATA PHARMACEUTICALS, INC., priority 2012, dated 2017)
Where two headings read alike, the source gives them in different places.

Columns and labels:
[1] = test system: TNF-α-induced NF-κB activation in A549/NF-κB-Luc cells; test: TNF-α-induced NF-κB luciferase reporter in A549/NF-κB-Luc; assay type: cell-based; conditions: Homo sapiens
From the text: (b) TNF-α-induced activation of an NF-κB luciferase reporter in the human A549 cell line.
NF-κB is a transcription factor that plays a central role in the regulation of many immune and inflammatory responses. […] The NIH3T3/NF-κB-luc cell line maintains a chromosomal integration of a Firefly luciferase reporter construct regulated by eight copies of the NF-κB response element. The effects of these compounds can be quantified by measuring the value of the NF-κB IC50.

[2] = test system: cigarette smoke-induced COPD; test: Cigarette smoke-induced COPD in mice; assay type: in vivo, mouse
Method: (a) KC; (b) IL-6; (c) TNF-α; (d) IFN-γ; (e) RANTES. […] An AIM analog (63355) was tested in the same study for comparison. Asterisks indicate a statistically significant difference form the CS control group.
At the end of the study, lung tissue and BALF were collected for analysis of inflammatory infiltrates and cytokines. […] An AIM analog (63355) was tested in the same study for comparison. 63355 is a compound of the formula: […]
Txnrd, Gst, and […] enzyme activities were measured using commercially available kits from Cayman Chemical (Ann Arbor, Mich.).

[3] = test system: neurobehavioral measures; test: Neurobehavioral evaluation (FOB) in rats; assay type: in vivo, rat
Method: One additional group of 10 animals/sex served as the control and received vehicle (sesame oil).
Observations for morbidity, mortality, injury, and availability of food and water were conducted twice daily for all animals. Observations for clinical signs were conducted prior to dosing on Day 1 and following each functional observational battery (FOB) evaluation. FOB evaluations were conducted pre-dose (Day −1) and at approximately 4 and 24 h post-dose. Body weights were measured and recorded pre-dose on Day 1.

[4] = Oral pharmacokinetics in mice; assay type: in vivo, mouse; conditions: oral suspension, 10 to 100 mg/kg
Method: Measurements were performed on TQD and QToF mass spectrometers (Waters).
Following oral administration of a suspension formulation at doses of 10 to 100 mg/kg, maximal concentrations were observed within 1 to 2 h in mice, and within 1 to 24 h in rats and monkeys.

[5] = Metabolism in monkey liver microsomes; assay type: in vitro ADME; conditions: 60-min incubation, NADPH and UGT
[6] = molecular target: CYP2C8 (Homo sapiens, UniProt P10632); test: CYP450 inhibition in pooled human liver microsomes, CYP2C8; assay type: in vitro ADME; conditions: read-out: Ki, direct inhibition of CYP2C8
CYP2C8, sequence (P10632 whole entry): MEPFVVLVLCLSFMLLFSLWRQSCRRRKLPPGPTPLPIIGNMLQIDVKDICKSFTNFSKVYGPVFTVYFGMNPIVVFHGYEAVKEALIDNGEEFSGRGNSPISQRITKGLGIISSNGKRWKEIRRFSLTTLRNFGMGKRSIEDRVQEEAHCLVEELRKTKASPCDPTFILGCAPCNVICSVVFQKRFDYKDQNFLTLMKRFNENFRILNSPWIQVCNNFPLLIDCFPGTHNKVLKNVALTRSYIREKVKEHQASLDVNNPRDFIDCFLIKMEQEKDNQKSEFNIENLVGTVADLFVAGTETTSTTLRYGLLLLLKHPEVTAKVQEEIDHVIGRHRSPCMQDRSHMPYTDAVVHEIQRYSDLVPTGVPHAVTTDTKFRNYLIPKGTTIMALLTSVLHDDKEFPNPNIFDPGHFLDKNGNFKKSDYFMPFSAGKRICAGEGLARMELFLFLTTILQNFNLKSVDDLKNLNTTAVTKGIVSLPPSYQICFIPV
From the text: In addition, there was little or no evidence of metabolism-dependent inhibition of any of the enzymes tested.

[7] = test system: fractionated radiation dermatitis; test: Fractionated radiation dermatitis in Balb/c mice; assay type: in vivo, mouse; conditions: for % Days ≧ 2 (dermatitis score) / % Days ≧ 3 (dermatitis score): 6 × 10 Gy
Method: The mice were irradiated on days 0-2 and 5-7 with six 10-Gy doses […]. Clinical dermatitis scores for the mice were evaluated blindly every two days from day 4 until the end of the study. […] Study and treatment parameters can be found in Table 6.
By analyzing the average clinical scores that were shown in FIG. 46, an area under the curve (AUC) analysis was performed, which yielded the severity of the dermatitis relative to how long the dermatitis persisted.

[8] = Distribution into mouse tissues after PO QD×3; assay type: in vivo; conditions: mice PO QD×3 25 mg/kg, 6 h after last dose, semi-quantitative
Method: Semi-quantitative analysis of drug content was performed.

[9] = test system: NQO1 activity; test: NQO1 activity induction in mouse liver, lung, and kidney after PO QD×3; assay type: in vivo; conditions: mice PO QD×3 25 mg/kg, 6 h after last dose
Method: FIG. 53—NQO1 activity induction in mouse liver, lung, and kidney by 63415. Mice were dosed PO QD×3 with 25 mg/kg. Tissues were collected 6 h after the last dose, and analysis of NQO1 activity was performed.

[10] = test system: micronucleated polychromatic erythrocytes; test: In vivo micronucleus study
[11] = 28-day toxicity study in rats; assay type: in vivo, rat
[12] = Plasma protein binding (ultracentrifugation), rat
[13] = Plasma protein binding (ultracentrifugation), mouse
[14] = Plasma protein binding (ultracentrifugation), human

## CC1(C)CC[C@]2(NC(=O)C(C)(F)F)CC[C@]3(C)[C@H](C(=O)C=C4[C@@]5(C)C=C(C#N)C(=O)C(C)(C)[C@@H]5CC[C@]43C)[C@@H]2C1 [RTA 408, N-((4aS,6aR,6bS,8aR,12aS,14aR,14bS)-11-cyano-2,2,6a,6b,9,9,12a-heptamethyl-10,14-dioxo-1,2,3,4,4a,5,6,6a,6b,7,8,8a,9,10,12a,14,14a,14b-octadecahydropicen-4a-yl)-2,2-difluoropropanamide]
[1]; not viability normalized, read-out: NF-κB IC50, human A549 cell line (further experimentation)
  IC50: 1700 nM
[1]; read-out: NF-κB IC50, human A549 cell line, viability normalized
  IC50: 1700 nM
[2]; 30 mg/kg
  Lung Txnrd enzyme activity: Txnrd enzyme activity was also induced
[2]; 3, 10, or 30 mg/kg
  Lung NQO1 enzyme activity (decreased by cigarette smoke): rescued this loss
[2]; doses as low as 3 mg/kg daily for two weeks
  Pro-inflammatory cytokines incl. KC and TNF-α: significant suppression of pro-inflammatory cytokines
[3]; 30 mg/kg
  Body weight gain approximately 24 h after dosing: Slight decreases in body weight gain
[3]; single oral dose up to and including 30 mg/kg
  Neurobehavioral endpoints: did not produce any adverse effects
[4]
  Time of maximal concentrations: 1 to 2 h
[5]
  Parent molecule remaining: < 10%
[6]
  Ki: ~500 nM
[7]; 0.1% to 1% topical formulations
  Average clinical dermatitis score: statistically significant improvement in the scores
[7]; topical 0.01%
  % Days ≧ 2 (dermatitis score): 54%
  % Days ≧ 3 (dermatitis score): 29%
[7]; topical 0.1%
  % Days ≧ 2 (dermatitis score): 40%
  % Days ≧ 3 (dermatitis score): 13%
[7]; topical 1%, vehicle 33%
  % Days ≧ 3 (dermatitis score): 6%
[7]; topical 1%, vehicle 60%
  % Days ≧ 2 (dermatitis score): 21%
[8]; brain, read-out: Drug content, Brain
  concentration at 6 h: 1080 nM
[8]; kidney, read-out: Drug content, Kidney
  concentration at 6 h: 1600 nM
[8]; liver, read-out: Drug content, Liver
  concentration at 6 h: 985 nM
[8]; lung, read-out: Drug content, Lung
  concentration at 6 h: 533 nM
[8]; plasma, read-out: Drug content, Plasma
  concentration at 6 h: 51 nM
[8]; whole blood, read-out: Drug content, Whole Blood
  concentration at 6 h: 679 nM
[9]
  NQO1 activity induction, Kidney: 10.9
  NQO1 activity induction, Liver: 10.9
  NQO1 activity induction, Lung: 1.75
[10]; 125 mg/kg, 24-h timepoint
  Change from Control (%): −8%
  Number of MPCE/1000 PCE (Mean +/− SD): 0.3 ± 0.27
  Number of MPCE/PCE Scored: 3/10000
  PCE/Total Erythrocytes (Mean +/− SD): 0.543 ± 0.03
[10]; 125 mg/kg, 48-h timepoint
  Change from Control (%): −14%
  Number of MPCE/1000 PCE (Mean +/− SD): 0.2 ± 0.27
  Number of MPCE/PCE Scored: 2/10000
  PCE/Total Erythrocytes (Mean +/− SD): 0.453 ± 0.03
[10]; 250 mg/kg, 24-h timepoint
  Change from Control (%): −12%
  Number of MPCE/1000 PCE (Mean +/− SD): 0.3 ± 0.27
  Number of MPCE/PCE Scored: 3/10000
  PCE/Total Erythrocytes (Mean +/− SD): 0.520 ± 0.06
[10]; 250 mg/kg, 48-h timepoint
  Change from Control (%): −26%
  Number of MPCE/1000 PCE (Mean +/− SD): 0.2 ± 0.27
  Number of MPCE/PCE Scored: 2/10000
  PCE/Total Erythrocytes (Mean +/− SD): 0.391 ± 0.02
[10]; 500 mg/kg, 24-h timepoint
  Change from Control (%): −28%
  Number of MPCE/1000 PCE (Mean +/− SD): 0.0 ± 0.00
  Number of MPCE/PCE Scored: 0/10000
  PCE/Total Erythrocytes (Mean +/− SD): 0.426 ± 0.07
[10]; 500 mg/kg, 48-h timepoint
  Change from Control (%): −36%
  Number of MPCE/1000 PCE (Mean +/− SD): 0.3 ± 0.45
  Number of MPCE/PCE Scored: 3/10000
  PCE/Total Erythrocytes (Mean +/− SD): 0.339 ± 0.05
[10]; 1000 mg/kg, 24-h timepoint
  Change from Control (%): −15%
  Number of MPCE/1000 PCE (Mean +/− SD): 0.2 ± 0.27
  Number of MPCE/PCE Scored: 2/10000
  PCE/Total Erythrocytes (Mean +/− SD): 0.498 ± 0.05
[10]; 1000 mg/kg, 48-h timepoint
  Change from Control (%): −35%
  Number of MPCE/1000 PCE (Mean +/− SD): 0.1 ± 0.22
  Number of MPCE/PCE Scored: 1/10000
  PCE/Total Erythrocytes (Mean +/− SD): 0.344 ± 0.04
[10]; 1500 mg/kg, 24-h timepoint
  Change from Control (%): −15%
  Number of MPCE/1000 PCE (Mean +/− SD): 0.4 ± 0.22
  Number of MPCE/PCE Scored: 4/10000
  PCE/Total Erythrocytes (Mean +/− SD): 0.499 ± 0.06
[10]; 1500 mg/kg, 48-h timepoint
  Change from Control (%): −39%
  Number of MPCE/1000 PCE (Mean +/− SD): 0.4 ± 0.42
  Number of MPCE/PCE Scored: 4/10000
  PCE/Total Erythrocytes (Mean +/− SD): 0.376 ± 0.05
[10]; 2000 mg/kg, 24-h timepoint
  Change from Control (%): −10%
  Number of MPCE/1000 PCE (Mean +/− SD): 0.2 ± 0.27
  Number of MPCE/PCE Scored: 2/10000
  PCE/Total Erythrocytes (Mean +/− SD): 0.531 ± 0.05
[10]; 2000 mg/kg, 48-h timepoint
  Change from Control (%): −32%
  Number of MPCE/1000 PCE (Mean +/− SD): 0.1 ± 0.22
  Number of MPCE/PCE Scored: 1/10000
  PCE/Total Erythrocytes (Mean +/− SD): 0.360 ± 0.03
[10]; 125-2000 mg/kg, 24-h and 48-h timepoints
  Genotoxicity in the In Vivo Micronucleus Study: 63415 is Negative for Genotoxicity in the In Vivo Micronucleus Study
[11]
  Transaminases: Transaminase elevations were observed
[12]
  fraction unbound: 0.05
[13]
  fraction unbound: 0.07
[14]
  fraction unbound: 0.03
